Values joined by “and” are separate entries in the source; they are usually repeats but may differ in a detail not shown here. Equal entries are not always repeated. Where two headings read alike, the source gives them in different places.
Key:
HCoV-OC43 [1] = assay: HCoV-OC43 virus inactivation assay; assay type: cell-based; settings: 50 µM with 10^5 FFU for 2 h at 34°C
[2] = tested on: lentiviral vector exposing the SARS-CoV-2 Spike protein, Wuhan isoform; assay type: cell-based; settings: 5 µM, 4 h pre-incubation, HEK293-ACE2, Wuhan Spike
[3] = Cell viability, MTT assay; assay type: cell-based, Human; settings: human, HEK293-ACE2 cells, 10 µM, 24 hours administration
Procedure: (§1) HEK293-ACE2 cells were seeded (2 x 10^4 cells/well) on 96-well plates in a complete DMEM medium with 10% FBS. After incubation for 24 hours at 37°C in humidified 5% CO2, the medium was replaced with a fresh one containing lurasidone previously dissolved in Milli-Q water at 0.1 – 100 µM. Control cells were treated with an equivalent volume of vehicle only. Cells were incubated for 24 hours at 37°C in humidified 5% CO2, then the medium was replaced with a fresh one without lurasidone. After an additional incubation of 24 hours at 37°C in humidified 5% CO2, HEK293-ACE2 cells were treated with 5 mg/ml 3-(4,5-dimethylthiazol-2-yl)-2,5 diphenyltetrazolium bromide (MTT) (Sigma Aldrich, St. Louis, MO, USA, #M5655-1G) in 5 mM Phosphate Buffered Saline (PBS), pH 7.4. After incubation for 4 hours at 37°C, MTT was removed, and the cells resuspended in isopropanol containing 0.04 M HCl. The absorbance of the samples was determined at 560 nm using a spectrophotometer (Infinite M200, Tecan, Männedorf, Switzerland), and the cell viability was expressed as a percentage of Vehicle-treated cells.

HEK293-ACE2 cells = assay: Cell viability, MTT assay; assay type: cell-based, Human; settings: 100 µM (maximum tested dose), 24 hours administration
Procedure: as §1

3CL-Pro SARS-CoV-2 = molecular target: T1, 3CL-Pro SARS-CoV-2 (Severe acute respiratory syndrome coronavirus 2, UniProt P0DTD1); assay: biochemical
T1 construct: The SARS-CoV-2 nsp5 protease activity was measured in black 384 well plates

SARS-CoV-2 [4] = assay: SARS-CoV-2 virus inactivation (virucidal) assay; assay type: cell-based; settings: 5 μM incubated with SARS-CoV-2 for 2 hours, Vero E6 plaque assay
[5] = tested on: lentiviral vector exposing the SARS-CoV-2 Spike protein, B.1.351 SA isoform; assay type: cell-based; settings: 1 or 5 µM, 4 h pre-incubation, HEK293-ACE2, B.1.351 SA Spike
RdRp SARS-CoV-2 = molecular target: T2, RdRp SARS-CoV-2 (Severe acute respiratory syndrome coronavirus 2, UniProt P0DTD1); assay: biochemical
T2 construct: SARS-CoV-2 RdRp was expressed and purified as described; made in house

[6] = tested on: ACE2 levels in HEK293-ACE2 cells; assay: Western blot analysis of ACE2 expression; assay type: cell-based, Human; settings: 5 µM, 24 h, HEK293-ACE2 cell lysates
Procedure: HEK293-ACE2 cells were seeded (2.4 x 10^5 cells/well) on 12-well plates in complete DMEM medium with 10% FBS and incubated for 24 hours at 37°C in humidified 5% CO2. The medium was then replaced with a fresh one containing 5 µM lurasidone. Control cells were treated with an equivalent volume of vehicle only. After incubation for 3, 6, and 24 hours at 37°C in humidified 5% CO2 the medium was removed, the cells collected and lysed for 15 min at 4°C with 20 mM Tris-HCl, pH 7.5, containing 150 mM NaCl, 1 mM Na2EDTA, 1 mM EGTA, 1% NP-40, 1% sodium deoxycholate, 2.5 mM sodium pyrophosphate, 1 mM β-glycerophosphate, 1 mM Na3VO4 and 1 µg/ml leupeptin. Samples were centrifuged for 10 min at 16,100 x g and the protein content was quantified by using a BCA protein assay kit (Thermofisher, Rockford, USA). 10 µg of total proteins were loaded in each lane, immunoblotted using 10% bis-Tris gel (Invitrogen, Waltham, MA, USA), and transferred to a PVDF membrane (Millipore, Vimodrone, Milan, Italy). The membranes were incubated overnight at 4°C with an anti-ACE2 AC18Z mouse monoclonal antibody (1:200, Santa Cruz Biotechnology, Santa Cruz, CA, USA) or anti-β-actin mouse monoclonal antibody (1:5000, Sigma Aldrich). Peroxidase-conjugated anti-mouse IgG (1:5000, Sigma Aldrich) was used as the secondary antibody. Hybridization signals were detected with a ChemiDoc XRS Touch Imaging System (Bio-Rad).

HCoV-OC43 [7] = assay: HCoV-OC43 time-of-addition assay; assay type: cell-based; settings: 50 µM; for antiviral activity, virus released in supernatant: MRC-5, MOI 0.1, 24 hours post-infection
HCoV-OC43 [8] = assay: HCoV-OC43 entry assay; assay type: cell-based; settings: 100-0.4 μM during virus entry, MRC-5, MOI 0.05
Procedure: The assay evaluates whether the drug inhibits the entry of virus into host cells. First, a fixed inoculum of HCoV-OC43 at MOI of 0.05 was allowed to attach to prechilled confluent cells, for 20 min at 4°C. Cells were then washed with cold medium three times to remove unbound virus, treated with serial dilutions of lurasidone (from 100 to 0.4 μM), and incubated for 1 h at 34°C to allow virus entry. After incubation, outer virions were removed with a 30 second treatment of citrate buffer (pH 3.0). Then, cells were washed with warm medium three times and treated as for the antiviral assay.

[9] = molecular target: T3, recombinant human ACE2 (rhACE2) (Homo sapiens, UniProt Q9BYF1); assay: Surface plasmon resonance direct binding assay; settings: 10 µM injected on immobilized rhACE2
T3 construct: purchased Acrobiosystem
Procedure: Recombinant human ACE2-Fc tag (rhACE2) (Acrobiosystem) at 5 μg/mL in PBST was captured on a HC30M (Xantec) sensor chip after the immobilization of anti-Fc antibody (Biorad) at 25 μg/mL in acetate buffer pH 5.0 by classic amine coupling chemistry on a NHS/EDC activated surface, reaching a final immobilization level of ~ 1000 RU. Simultaneously, a mix of IgG antibodies at 25 μg/mL in acetate buffer pH 5.0 was immobilized on a parallel surface and used as reference.
To test the direct binding of rhACE2 and lurasidone, the drug was injected at 10 µM in PBST 0.1% DMSO for 200 seconds at 30 μl/min on both surfaces. In a different channel, we also flowed SARS-CoV-2 Spike protein RBD (Wuhan isotype) at 10 nM in PBST as a positive control.

[10] = set-up: method as in Bawa and Scarff, 2015; settings: patients, minimal changes in the metabolic profile; ref Bawa and Scarff, 2015; cited from earlier work
SARS-CoV-2 [11] = assay: microbe, parasite or virus in culture; assay type: cell-based
HCoV-OC43 [12] = assay: HCoV-OC43 antiviral focus reduction assay; assay type: cell-based
Procedure: The antiviral efficacy of lurasidone was determined by focus reduction assay, as described elsewhere ([Milani et al., 2021]). Briefly, MRC-5 sub-confluent cells in 96-well plates were infected with HCoV-OC43 at a multiplicity of infection (MOI) of 0.001 FFU/cell and concurrently treated with increasing concentrations of drug (100 to 0.12 µM). After incubation at 34°C for 16 hours, infected foci were visualized with an indirect immunocytochemistry procedure, using a primary antibody directed against the nucleoprotein of HCoV-OC43 (MAB9013, Merck KGaA, Darmstadt, Germany) or a primary antibody directed against the dsRNA (10010500, Nordic-MUbio, Susteren, Netherlands).
(§2) All data were analyzed with GraphPad Prism version 8.00 software. Results were expressed as mean values for three independent experiments performed in duplicate. […] Selectivity indexes were calculated as SI = CC50/EC50. The Student’s T-test was used to compare viral titers in virus inactivation assay. The viral titers of control and treated samples in time-of-addition assays were compared using a one-way analysis of variance (ANOVA) and a post-hoc Bonferroni test. Significance was set at p value <0.05 (*), <0.01 (**) and <0.001 (***).

PL-Pro SARS-CoV-2 = molecular target: T4, PL-Pro SARS-CoV-2 (Severe acute respiratory syndrome coronavirus 2, UniProt P0DTD1); assay: Biochemical assay for SARS-CoV-2 PL-Pro
T4 construct: purified recombinant SARS-CoV-2 RdRp, 3CL-Pro and PL-Pro proteins

[13] = Cell viability assay on MRC-5 cells; assay type: cell-based; settings: human, same conditions as antiviral assay
Procedure: Pre-seeded MRC-5 cells were treated with the drug at concentrations ranging from 1000 to 12.3 μM or equal volumes of DMSO as control, under the same experimental conditions for the antiviral assays. After incubation, the CellTiter 96 Proliferation Assay Kit (Promega, Madison, WI, USA) was used to determine the effect of lurasidone on cell viability. The effect on cell viability was expressed as a percentage, by comparing absorbances of treated cells with those of cells incubated with DMSO-treated control wells.
as §2

[14] = tested on: lentiviral vector exposing the SARS-CoV-2 Spike protein, B.1.1.7 UK isoform; assay type: cell-based; settings: 1 µM, 4 h pre-incubation, HEK293-ACE2, B.1.1.7 UK Spike

T3 sequence (Q9BYF1 18-805): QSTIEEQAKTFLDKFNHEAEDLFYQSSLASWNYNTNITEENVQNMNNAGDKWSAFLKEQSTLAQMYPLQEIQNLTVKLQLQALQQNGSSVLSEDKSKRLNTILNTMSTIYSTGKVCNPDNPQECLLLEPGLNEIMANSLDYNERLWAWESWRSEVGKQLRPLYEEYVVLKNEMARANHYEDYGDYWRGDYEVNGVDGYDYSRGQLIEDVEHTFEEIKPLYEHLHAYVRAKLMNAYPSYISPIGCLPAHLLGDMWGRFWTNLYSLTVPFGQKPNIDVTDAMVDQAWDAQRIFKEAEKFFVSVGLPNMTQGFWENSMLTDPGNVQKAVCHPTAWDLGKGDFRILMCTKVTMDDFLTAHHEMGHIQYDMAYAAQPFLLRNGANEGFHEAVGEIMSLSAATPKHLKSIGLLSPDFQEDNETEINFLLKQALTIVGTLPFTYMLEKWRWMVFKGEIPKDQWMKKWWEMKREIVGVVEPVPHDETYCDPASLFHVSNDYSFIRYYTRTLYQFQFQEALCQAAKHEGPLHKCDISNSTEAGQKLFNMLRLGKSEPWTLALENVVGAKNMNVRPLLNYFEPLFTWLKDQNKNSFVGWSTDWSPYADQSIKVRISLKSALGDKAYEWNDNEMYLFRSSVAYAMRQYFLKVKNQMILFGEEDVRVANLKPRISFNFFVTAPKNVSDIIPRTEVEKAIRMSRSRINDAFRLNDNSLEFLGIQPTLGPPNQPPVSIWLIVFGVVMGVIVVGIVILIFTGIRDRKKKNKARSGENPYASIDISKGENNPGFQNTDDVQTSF

For O=C1[C@@H]2[C@H]3CC[C@H](C3)[C@@H]2C(=O)N1C[C@@H]1CCCC[C@H]1CN1CCN(c2nsc3ccccc23)CC1 [Lurasidone, lurasidone], the intrinsic virucidal activity (HCoV-OC43 [1]) was “not endowed with intrinsic virucidal activity”, the “inhibition of transduction (GFP-positive cells)” value (from here on “inhibition of transduction”) [2] was “active” and the viability at 24 h, 10 µM [3] was about 80%. For the same molecule, the toxicity (HEK293-ACE2 cells) was ~ 40%, the IC50 (3CL-Pro SARS-CoV-2) was over 100 µM and the remaining activity at 100 µM (3CL-Pro SARS-CoV-2; in the presence of 100 µM, read-out: Percentage of control activity, 3CL-Pro) was 87%. For the same molecule, the virucidal activity (SARS-CoV-2 [4]) was “did not show any significant virucidal activity”, the “inhibition of transduction” value [5] was “not effective” and the IC50 (RdRp SARS-CoV-2; 50 nM enzyme) was over 100 µM. For the same molecule, the remaining activity at 100 µM (RdRp SARS-CoV-2; in the presence of 100 µM, read-out: Percentage of control activity, RdRp) was 100%, the “modification in the ACE2 levels” value [6] was “no significant modification” and the “reduction of virus titer” value (HCoV-OC43 [7]; 18 hours post-infection treatment, p < 0.001) was “significant reduction”. For the same molecule, the “antiviral activity, virus released in supernatant” value (HCoV-OC43 [7]; co-treatment 1 hour during virus inoculum) was “not active”, the “inhibition of virus production” value (HCoV-OC43 [7]; post-treatment 1, 4, 18 hours after infection, MRC-5, MOI 0.1) was “significantly inhibited virus production” and the “antiviral activity, virus released in supernatant” value (HCoV-OC43 [7]; pre-treatment 1 hour before infection) was “not active”. For the same molecule, the “inhibition of virus entry into the host cell” value (HCoV-OC43 [8]) was “does not act during the early steps of virus infection”, the “direct binding to rhACE2 (SPR)” value [9] was “not able to bind” and the “tolerability in clinical trials” value [10] was “good tolerability”. For the same molecule, the “effect on viral replication” value (SARS-CoV-2 [11]) was “did not affect viral replication”, the “inhibition of viral replication” value (SARS-CoV-2 [11]) was 78% and 79% and 40% and the inhibition at 5 µM (SARS-CoV-2 [11]; Severe acute respiratory syndrome coronavirus 2, 24 h, read-out: inhibition of viral replication) was 76%. It also gave an EC50 (HCoV-OC43 [12]; Betacoronavirus 1, OC43, MRC5, 16 h, read-out: EC50 (mean ± SD), viral marker NP (nucleoprotein), MRC-5 cells, MOI 0.001, 16 hours) of 8.3 µM, an EC50 (HCoV-OC43 [12]; Betacoronavirus 1, OC43, MRC5, 16 h, read-out: EC50 (mean ± SD), viral marker dsRNA, MRC-5 cells, MOI 0.001, 16 hours) of 8.5 µM and an EC90 (HCoV-OC43 [12]; Betacoronavirus 1, OC43, MRC5, read-out: EC90 (mean ± SD), viral marker NP (nucleoprotein), MRC-5 cells) of 23.5 µM. The EC90 (HCoV-OC43 [12]; Betacoronavirus 1, OC43, MRC5, read-out: EC90 (mean ± SD), viral marker dsRNA, MRC-5 cells) was 11.9 µM, the EC50 (HCoV-OC43 [12]; Betacoronavirus 1, OC43, both markers (NP and dsRNA)) was about 8 µM and the EC99 dose (HCoV-OC43 [12]; MRC-5 cells, HCoV-OC43) was 50 µM. For the same molecule, the “SI (CC50/EC50)” value (HCoV-OC43 [12]; viral marker NP) was over 120.5, the “SI (CC50/EC50)” value (HCoV-OC43 [12]; viral marker dsRNA) was over 117.6 and the IC50 (PL-Pro SARS-CoV-2) was 0.12 ± 0.03 µM. For the same molecule, the CC50 [13] was over 1000 µM and the “inhibition of transduction” value [14] was “able to inhibit”.

Reference: PMC11625747, “The antipsychotic drug lurasidone inhibits coronaviruses by affecting multiple targets” (Frontiers in Cellular and Infection Microbiology, 2024)
